Test results taken from the supplement of paper PMC10307832.

What was measured:
Test in all cases: relative viability (nuclei count vs DMSO), 5 days (fraction); higher = more cells survive
[1] = test system: 201T
Outline: (§1)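 Dosing by pin tool came one day after lung cancer cell lines were seeded in 1536-well plates, using either one drug or a fixed anchor-drug dose plus five library-drug doses (not always all listed) in √10 steps. After 5 days, nuclei were counted on 4× images. Relative viability is treated-well nuclei count divided by vehicle-well nuclei count, and values are medians of duplicate plates.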

[2] = test system: ABC-1
Outline: as §1

[3] = test system: BEN
Outline: as §1

[4] = test system: CAL-12T
Outline: as §1

[5] = test system: EKVX
Outline: as §1

[6] = test system: HARA
Outline: as §1

[7] = test system: HCC-366
Outline: as §1

[8] = test system: LK-2
Outline: as §1

[9] = test system: LOU-NH91
Outline: as §1

[10] = test system: NCI-H1437
Outline: as §1

[11] = test system: NCI-H1666
Outline: as §1

[12] = test system: NCI-H2170
Outline: as §1

[13] = test system: NCI-H3122
Outline: as §1

[14] = test system: NCI-H441
Outline: as §1

[15] = test system: NCI-H460
Outline: as §1

[16] = test system: NCI-H727
Outline: as §1

[17] = test system: PC-14
Outline: as §1

[18] = test system: SW 900
Outline: as §1

CC(=O)O[C@@]12CO[C@@H]1C[C@H](O)[C@@]1(C)C(=O)[C@H](O)C3=C(C)[C@@H](OC(=O)[C@H](O)[C@@H](NC(=O)OC(C)(C)C)c4ccccc4)C[C@@](O)([C@@H](OC(=O)c4ccccc4)[C@H]21)C3(C)C [Docetaxel] + NC(=O)Nc1cc(-c2cccc(F)c2)sc1C(=O)N[C@H]1CCCNC1 [AZD7762] (partner 0.2 µM)
relative viability ([1]; first compound 0.0002 µM): 0.528
relative viability ([1]; first compound 0.000632 µM): 0.623
relative viability ([1]; first compound 0.002 µM): 0.481
relative viability ([1]; first compound 0.006325 µM): 0.388
relative viability ([1]; first compound 0.02 µM): 0.246
relative viability ([2]; first compound 0.0002 µM): 0.826
relative viability ([2]; first compound 0.000632 µM): 0.795
relative viability ([2]; first compound 0.002 µM): 0.619
relative viability ([2]; first compound 0.006325 µM): 0.297
relative viability ([2]; first compound 0.02 µM): 0.222
relative viability ([3]; first compound 0.0002 µM): 0.553
relative viability ([3]; first compound 0.000632 µM): 0.822
relative viability ([3]; first compound 0.002 µM): 0.483
relative viability ([3]; first compound 0.006325 µM): 0.412
relative viability ([3]; first compound 0.02 µM): 0.307
relative viability ([4]; first compound 0.0002 µM): 0.595
relative viability ([4]; first compound 0.000632 µM): 0.452
relative viability ([4]; first compound 0.002 µM): 0.491
relative viability ([4]; first compound 0.02 µM): 0.176
relative viability ([5]; first compound 0.0002 µM): 0.736
relative viability ([5]; first compound 0.000632 µM): 0.638
relative viability ([5]; first compound 0.002 µM): 0.407
relative viability ([5]; first compound 0.006325 µM): 0.249
relative viability ([5]; first compound 0.02 µM): 0.132
relative viability ([6]; first compound 0.0002 µM): 0.273
relative viability ([6]; first compound 0.000632 µM): 0.201
relative viability ([6]; first compound 0.002 µM): 0.105
relative viability ([6]; first compound 0.006325 µM): 0.193
relative viability ([6]; first compound 0.02 µM): 0.076
relative viability ([7]; first compound 0.0002 µM): 0.206
relative viability ([7]; first compound 0.000632 µM): 0.0949
relative viability ([7]; first compound 0.002 µM): 0.145
relative viability ([7]; first compound 0.006325 µM): 0.0384
relative viability ([7]; first compound 0.02 µM): 0.0132
relative viability ([8]; first compound 0.0002 µM): 0.337
relative viability ([8]; first compound 0.000632 µM): 0.277
relative viability ([8]; first compound 0.002 µM): 0.113
relative viability ([8]; first compound 0.006325 µM): 0.112
relative viability ([8]; first compound 0.02 µM): 0.0712
relative viability ([9]; first compound 0.0002 µM): 0.748
relative viability ([9]; first compound 0.000632 µM): 0.662
relative viability ([9]; first compound 0.002 µM): 0.509
relative viability ([9]; first compound 0.006325 µM): 0.385
relative viability ([9]; first compound 0.02 µM): 0.342
relative viability ([10]; first compound 0.0002 µM): 1.08
relative viability ([10]; first compound 0.000632 µM): 1.12
relative viability ([10]; first compound 0.002 µM): 0.616
relative viability ([10]; first compound 0.006325 µM): 0.281
relative viability ([10]; first compound 0.02 µM): 0.141
relative viability ([11]; first compound 0.0002 µM): 0.692
relative viability ([11]; first compound 0.000632 µM): 0.695
relative viability ([11]; first compound 0.002 µM): 0.521
relative viability ([11]; first compound 0.006325 µM): 0.465
relative viability ([11]; first compound 0.02 µM): 0.359
relative viability ([12]; first compound 0.0002 µM): 0.895
relative viability ([12]; first compound 0.000632 µM): 0.722
relative viability ([12]; first compound 0.002 µM): 0.581
relative viability ([12]; first compound 0.02 µM): 0.131
relative viability ([13]; first compound 0.0002 µM): 0.939
relative viability ([13]; first compound 0.000632 µM): 0.818
relative viability ([13]; first compound 0.002 µM): 0.843
relative viability ([13]; first compound 0.006325 µM): 0.171
relative viability ([13]; first compound 0.02 µM): 0.121
relative viability ([14]; first compound 0.0002 µM): 1.06
relative viability ([14]; first compound 0.000632 µM): 1.15
relative viability ([14]; first compound 0.002 µM): 0.263
relative viability ([14]; first compound 0.006325 µM): 0.221
relative viability ([14]; first compound 0.02 µM): 0.167
relative viability ([15]; first compound 0.0002 µM): 0.565
relative viability ([15]; first compound 0.000632 µM): 0.575
relative viability ([15]; first compound 0.002 µM): 0.167
relative viability ([15]; first compound 0.006325 µM): 0.0571
relative viability ([15]; first compound 0.02 µM): 0.0404
relative viability ([16]; first compound 0.0002 µM): 0.482
relative viability ([16]; first compound 0.000632 µM): 0.537
relative viability ([16]; first compound 0.002 µM): 0.503
relative viability ([16]; first compound 0.006325 µM): 0.452
relative viability ([16]; first compound 0.02 µM): 0.381
relative viability ([17]; first compound 0.0002 µM): 0.322
relative viability ([17]; first compound 0.000632 µM): 0.337
relative viability ([17]; first compound 0.002 µM): 0.132
relative viability ([17]; first compound 0.006325 µM): 0.0705
relative viability ([17]; first compound 0.02 µM): 0.0363
relative viability ([18]; first compound 0.0002 µM): 0.452
relative viability ([18]; first compound 0.000632 µM): 0.234
relative viability ([18]; first compound 0.002 µM): 0.287
relative viability ([18]; first compound 0.006325 µM): 0.235
relative viability ([18]; first compound 0.02 µM): 0.161
